Reference: patent publication US12178805B2, “Inhibitors of PDE6Delta for use in the prevention and/or treatment of epilepsy and/or neurodegenerative disorders” (ReMYND N.V., priority 2017, dated 2024)

How the values were obtained:
[1] = tested on: VGCC activity in primary neurons; assay: KCl-induced Ca2+ influx (VGCC activity) in primary neurons; type: cell-based, mouse; conditions: for inhibition at 10 µM: Mus musculus, Primary neuron, relative to vehicle treated neurons, KCl depolarisation, read-out: % inhibition of cytosolic Ca^2+ influx
Experimental: Examplary compound 6 was tested for its ability to inhibit VGCC activity in primary neurons. Neurons from mouse embryos were harvested and cultured using standard methods (such as used in Schlager et al., 2014. Cell reports, 8(5), pp. 1248-56). To stimulate VGCC activity, neurons were depolarized using 45 mM KCl and incubated with vehicle or 1.5 μM of compound. Calcium influx was measured using fluorescent cytosolic Ca^2+ detection reagent Fura2.
Changes in cytosolic Ca^2+ concentrations were measured after loading the cells with Fura-2 AM (Sigma-Aldrich), a cell permeable fluorescent probe for Ca^2+. Briefly, Fura-2-AM was dissolved in DMSO plus 20% Pluronic Acid (F-127) (Invitrogen) in a 1:1 ratio and diluted in medium to a final concentration of 0.5 μM. Probenecid (Sigma-Aldrich) was added to this loading medium at a final concentration of 2.5 mM. Then, culture medium was replaced by loading medium and after incubation for 1 hour at 37° C. cells were washed twice and replaced with HBSS (Gibco) supplemented with 0.2% FBS and 0.02M HEPES. Next, changes in cytosolic calcium were measured using a FlexStation 3 microplate reader (Molecular Devices) and quantified ratiometric, by calculating changes in the amount of cytosolic Ca^2+ bound Fura-2 (fluorescence intensity at 340 nm) relative to the amount of Ca^2+ unbound Fura-2 (fluorescence intensity at 380 nm). Data was processed in SoftMax Pro 5.4.6 software (Molecular Devices).
Compounds 1-7 were tested at 10 μM for their ability to inhibit Ca^2+ influx in primary neurons (FIG. 5) as described in Example 21 (Table 5). Primary neurons treated with vehicle in which no compound was dissolved was used as a no-effect control. The percentage (%) inhibition of Ca^2+ influx relative to vehicle treated neurons was calculated.

M17-TAU P301L cells = assay: TAU-toxicity model, LDH leakage of retinoic acid incubated M17-TAU P301L cells; type: cell-based, human; conditions: non-silenced cells
From the text: A TAU expression plasmid was constructed by sub-cloning the cDNA of human TAU-P301L (encoding for TAU with proline 301 substituted by a leucine residue) into mammalian expression vector pcDNA3.1 resulting in plasmid pcDNA3.1-TAU P301L. Plasmids pcDNA3.1 and pcDNA3.1-TAU P301L were transfected to human neuroblastoma cells ([…]; ATCC No. CRL-2267) and independent clonal lines with the plasmids stably integrated into the genome were selected. […] Expression of the TAU P301L genes in the cell lines was confirmed by Western analysis.
In degenerated or dead cells lactate dehydrogenase (LDH) leaks out of the cells into the extracellular environment due to a loss of plasma-membrane integrity. This principle was used to determine cytotoxicity by quantifying the level of leaked LDH into the growth medium relative to the sum of total LDH activity from living cells and dead cells.
(§1) The detailed method for determining cytotoxicity was as follows: From appropriate precultures of M17-3.1 and M17-TAU(P301L) cells were seeded at 2500 cells/cm2 in Optimem Reduced Serum without phenol red (Gibco, Cat. 31985-047) supplemented with 1% fetal calf serum, 1 mM sodium pyruvate, 1× non-essential amino acids, 500 μg/ml G418 0.5×antibiotic/antimycotic. After 3 hours of incubation at 37° C./5% CO2 1 volume of Optimem Reduced Serum (same as described above; except without fetal calf serum) supplemented with 2.5 μM all-trans retinoic acid (ATRA) was added. The cells were further incubated for 7 days. Subsequently, LDH activity was determined using Promega Cytotox 96 Non-Radioactive cytotoxicity assay, (Cat. G1780) according the supplier's instructions.
The M17-TAU P301L cell line made it possible to assess the ability of novel compounds to inhibit PDE6δ and counteract TAU cytotoxicity. […] These measurements were used to calculate EC50 values.

PDE6δ silenced cells = assay: TAU-toxicity model in PDE6δ silenced cells; type: cell-based, human; conditions: compared with non-silenced cells
RAP1A silenced cells = assay: TAU-toxicity model in RAP1A silenced cells; type: cell-based, human; conditions: compared with non-silenced cells
Experimental: as §1

[2] = tested on: primary rat hippocampal neurons; assay: ex-vivo inhibition of oligomeric amyloid beta (Aβo/ADDL) toxicity in primary neurons; type: cell-based; conditions: 100 ng/mL, 1000 nM ADDL, 24 h
Experimental: An exemplary compound of this invention was tested for its ability to inhibit toxicity elicited by oligomeric amyloid beta (Aβo). Neurons from rat embryos were harvested and cultured using standard methods (such as used in Schlager et al., 2014. Cell reports, 8(5), pp. 1248-56.). Differentiated neurons were challenged with Aβo and viability was quantified.
At day in-vitro 19 days after isolation primary hippocampal neurons were transfected with Marcks-GFP in order to visualize the neurons with fluorescence microscopy.
ADDL (Abeta-derived diffusible ligands) preparation (representing Aβo) was done according to Klein (Klein, 2002. Neurochemistry international, 41(5), pp. 345-52.). Abeta 1-42 was purchased from AnaSpec Inc. and dissolved in HFIP to homogenize the peptide. HFIP was then evaporated in a speedvac and Abeta film was dried at −20° C. overnight over desiccant. Abeta film was then resolubilised in 100% DMSO and further diluted (1/25) in Ham's F12 medium. Blanks were prepared by adding equal amounts of DMSO to Ham's F12 medium. Abeta and Blank solutions were incubated overnight at 4° C.
At day in-vitro 21 primary rat hippocampal neurons were treated with equal volume of Blank/ADDL solution amounting to 0 and 1000 nM ADDL. Cultures were kept at 37° C. 5% CO2 for 24 h before PFA fixation. Viability was assessed using the Live-Dead assay from Thermo Fisher Catalog number: L3224.

[3] = tested on: phosphorylated TAU in brain; assay: in vivo TAU phosphorylation in brain of transgenic APP*PS1 mice, Western analysis; design: species or system mouse; conditions: 20 mg/kg daily subcutaneously, 5-month old APP*PS1 mice, versus vehicle
Experimental: Transgenic human 5-month old APP*PS1 mice (The Journal of Neuroscience, Sep. 1, 2000, 20(17):6452-6458) were treated daily subcutaneously with 20 mg/kg Compound 6 or for two weeks with Compound A:
At the end of the treatment period, mice were sacrificed and the corresponding brains were used for biochemical analysis.

[4] = tested on: transgenic human APP mice; assay: Morris Water Maze test in transgenic APP mice; type: in vivo, mouse; conditions: 20 mg/kg subcutaneously, daily for 8 weeks, versus vehicle
Experimental: Transgenic human 4-month old APP mice (THE JOURNAL OF BIOLOGICAL […] Vol. 274, No. 10, Issue of March 5, pp. 6483-6492, 1999) were treated subcutaneously, daily for 8 weeks with examplary Compound 6 at 20 mg/kg (FIG. 7). Cognition was assessed using the Morris Water Maze test. […] After the learning phase a probe test was conducted in which the platform was removed from the water bath to evaluate the spatial memory of the location of the platform.
Both indices indicate that compound treated mice have improved cognitive performance almost identical to wild type controls compared to vehicle treated mice.

[5] = tested on: CA1 pyramidal neurons in tgAPP mouse brain slices; assay: firing rate of CA1 neurons in brain slices of tgAPP mice, patch clamp; conditions: 2 μM, 1 hr perfusion
Experimental: Brain slices from wild type and tgAPP mice were incubated with DMSO or Compound 6. Neurons were stimulated with increasing currents and the frequency of action potentials was measured.
Acute sagittal brain slices from WT or hAPP mice were prepared by decapitation of the mice after isoflurane anaesthesia. Brains were removed quickly and immersed during 3-4 min in ice-cold freshly prepared cutting artificial cerebrospinal fluid (cutting aCSF) containing (in mM) 214 sucrose, 2.5 KCl, 2 CaCl2), 2 MgSO4, 1.25 NaH2PO2, 26 NaHCO3 and 10 glucose and oxygenated with 95% O2/5% CO2. Sagittal 350 μm slices were generated using a vibratome (VT 1000S; Leica Microsystems) and were incubated in standard carboxygenated aCSF (in mM: 125 NaCl, 2.5 KCl, 2 CaCl2), 2 MgSO4, 1.25 NaH2PO2, 26 NaHCO3 and 10 glucose, osmolarity 305 mOsm) at 34° C. during 20 min. The incubation continued at room temperature (RT) for another hour before each slice was transferred to a submerged recording chamber and perfused continuously with carboxygenated aCSF. […]
Dendritic firing rate of CA1 cells was recorded in response to hyperpolarizing and depolarizing steps (−0.4 to +0.45 nA, steps of 0.05 nA) after a 1 hr perfusion with vehicle or compound at 2 μM. […]

mouse brain slices = assay: afterhyperpolarization of single action potentials in mouse brain slices; conditions: slices incubated with compound versus vehicle
Experimental: A single spike was elicited by injecting a 2 ms depolarizing current pulse (35 pA) and action potential (AP) parameters were at baseline and after 25 min vehicle or compound perfusion.
Action potentials (AP) after electrical stimulation of mouse brain slices were analysed (FIG. 14).
The experiment was performed as described in Example 24.

RAP1A binding on PDE6δ = target: T1, RAP1A binding on PDE6δ (Homo sapiens, UniProt O43924); assay: PDE6δ-STREP/HA pull-down from HEK293 cells with quantitative mass spectrometry of interactors; type: cell-based; conditions: 1 hour incubation of 1 μM
T1 construct: expressed in transfected cells
From the text: PDE6δ together with associated proteins was precipitated from a cellular extract either in the presence or absence of Compound A:
Using mass spectrometry based techniques interacting proteins were quantitatively identified in function of compound presence (FIG. 11).
In the absence of Compound A a host of interacting proteins were identified including known interactors such as Arl3 and RPGR. […] This effect is highly specific since a non-prenylated interactor of PDE6δ such as Arl3 which bind PDE6δ via different mechanisms is not impacted.
The cDNA encoding human PDE6δ was fused with a STREP-HA tag encoding DNA sequence and expressed in HEK293 cells using a standard expression vector. The bait sequence was verified by sequencing. […] Bait expression and solubility was monitored by immunoblotting using anti-HA antibodies. […]
Affinity purification and mass spectrometrical analysis of PDE6δ-strep-HA expressed in HEK293 cells was performed with three biological replicates for label free quantitative mass spectrometrical analysis. The samples were analyzed on a Thermo LTQ Orbitrap XL spectrometer using a C18 column, ESI and a 60 min gradient. The signals' intenstity are provided as 2 Log values and correlates to the concentration of the detected mass (number/amount of peptide). […]

T1 sequence (O43924 whole entry): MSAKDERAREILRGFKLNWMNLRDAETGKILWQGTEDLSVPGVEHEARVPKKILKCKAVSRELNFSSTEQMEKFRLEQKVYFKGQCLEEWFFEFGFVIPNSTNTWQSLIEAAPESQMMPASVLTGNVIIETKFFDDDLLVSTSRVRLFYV

## O=C(NCCc1c[nH]c2ccc(F)cc12)c1cc(Cc2ccc(F)cc2F)on1 [Compound 1]
[1]
  inhibition at 10 µM: 43%

## O=C(NCCc1c[nH]c2ccc(F)cc12)c1cc(Cc2ccc(F)c(F)c2)on1 [Compound 2]
[1]
  inhibition at 10 µM: 48%

## O=C(NCCc1c[nH]c2ccc(F)cc12)c1cc(Cc2cc(F)cc(F)c2)on1 [Compound 3]
[1]
  inhibition at 10 µM: 42%

## O=C(NCCc1c[nH]c2ccc(F)cc12)c1cc(Cc2ccc(F)cc2)on1 [Compound 4]
[1]
  inhibition at 10 µM: 39%

## O=C(NCCc1c[nH]c2ccc(F)cc12)c1cc(Cc2cccc(F)c2F)on1 [Compound 5]
[1]
  inhibition at 10 µM: 42%

## O=C(NCCc1c[nH]c2ccc(F)cc12)c1cc(Cc2cc(F)ccc2F)on1 [Compound 6]
M17-TAU P301L cells
  effect on TAU-induced toxicity: reduced toxicity
PDE6δ silenced cells
  effect of the compound on lowering toxicity in PDE6δ silenced cells: strongly reduced
RAP1A silenced cells
  compound effect on reducing neurotoxicity in RAP1A silenced cells: strongly reduced
[1]; 1.5 μM, 45 mM KCl
  Ca^2+ influx upon KCl depolarisation: significantly reduced
[1]
  inhibition at 10 µM: 43%
[2]
  neuronal viability in Aβo treated neurons: strongly rescued
[3]
  TAU phosphorylation in brain extracts: effectively reduced TAU phosphorylation
[4]
  annulus crossing index in probe test: higher annulus crossing index score
  search path during training phase: reduced search path
[5]
  frequency of action potentials at high stimulation: significantly lowered the frequency towards wild type level
Mouse brain slices
  afterhyperpolarization of action potentials: increased

## O=C(NCCc1c[nH]c2ccc(F)cc12)c1cc(Cc2ccccc2F)on1 [Compound 7]
[1]
  inhibition at 10 µM: 56%

## O=C(NCCc1c[nH]c2ccc(Cl)cc12)c1cc(Cc2cc(F)ccc2F)on1 [Compound A]
RAP1A binding on PDE6δ
  interaction of Arl3 (non-prenylated interactor) with PDE6δ: not impacted
  interaction of RAP1A with PDE6δ: specifically reduced

## c1ccc(Cn2c(-c3ccc(OC[C@H](C4CCNCC4)n4c(-c5ccccc5)nc5ccccc54)cc3)nc3ccccc32)cc1 [Deltarasin, reference compound]
M17-TAU P301L cells
  effect on TAU-induced toxicity: lowered toxicity
PDE6δ silenced cells
  effect of the compound on lowering toxicity in PDE6δ silenced cells: strongly reduced

## COC(=O)C1=C(C)NC(C)=C(C(=O)OC(C)C)C1c1cccc2nonc12 (stereo not shown) [isradepine]
M17-TAU P301L cells
  effect on TAU-induced toxicity: lowered toxicity
